{"source": "patent US20240016784A1", "about": "“Y BOX BINDING PROTEIN 1 INHIBITORS” (Oregon Health & Science University, priority 2020, published 2024)", "key": {"[1]": {"test_system": "OC cell lines", "assay": "Cell migration assay (Boyden chamber)", "type": "cell-based", "conditions": "different OC cell lines, P<0.05", "method": "To determine whether proliferation inhibition was the dominant factor driving the reduction in OC viability seen with AzP treatment, we used propidium iodide and annexin-FITC stains with flow cytometry to measure the distribution of cell cycle phases after treatment. […] Furthermore, in the Boyden chamber assay for cell migration, SU093 inhibited cell migration by 40-46% (1 μM, P<0.05) in different OC cell lines.\nCell migration assay: 1×10^5 cells were plated in 60 mm cell culture dishes (Corning-Falcon, #353002) and incubated for 24 h. […] Cells were trypsinized and collected in a conical tube for each plate. Pellets of cells were resuspended, and live cells were counted using a hemocytometer and trypan blue staining. 40,000 live cells were then plated in the upper chamber of 8-micron transwell (Corning-Falcon, #353097) with 0.2% FBS media. The lower chamber contained 10% FBS complete media. […] Each transwell was washed, swiped for non-migrated cells and fixed using 75% ethanol. Fixed transwells were stained with 0.5% crystal violet for 1 h. De-stained transwell membranes were cut and mounted on a slide using DPX mounting media. Migrated cells were counted under the microscope at 100× magnification.\nFIG. 1A) Lead optimization of SU093 to obtain SU056. […] FIG. 1G) Effects of SU093 and SU056 on apoptotic cell death analyzed by Annexin-FITC staining. […]"}, "[2]": {"assay": "Liver toxicity parameters (ALT, AST, ALKP) in ID8 study", "type": "in vivo, C57BL/6 mice", "conditions": "20 mg/kg daily IP, 42 days", "method": "These promising results led us to test SU093 and SU056 in vivo. C57BL/6 mice were implanted with 2×10^6 firefly luciferase (luc+)-expressing ID-8 syngeneic ovarian cancer cells subcutaneously. Once the tumors reached 100 mm^3 in size, we began daily intraperitoneal treatment with SU093 and SU056 at 20 mg/kg (vehicle control 30% PEG-300 in saline). Tumor growth was monitored via bioluminescence imaging (IVIS).\nIn vivo xenograft model and drug efficacy study: All animal experiments were reviewed and approved by the Animal Care and Use Committee of Stanford University, CA, USA. Luciferase tagged ID8 (2×10^6) or OVCAR8 (5×10^6) cells were implanted into the right flank of 6-7-week-old female C57BL/6 mice and NOD/SCID mice, respectively. Respective treatment began after tumors grew to 100-200 mm^3 diameters. The ID8 syngeneic mice model was treated with a vehicle (30% PEG-300 in saline), 20 mg/kg SU093, and 20 mg/kg SU056 intraperitoneally (IP) daily for 42 days. At the end of treatment, blood was collected from each mouse and analyzed for liver toxicity parameters, including Alanine Aminotransferase (ALT), Aspartate Aminotransferase (AST), and Alkaline Phosphatase (ALKP). […]"}, "[3]": {"molecular_target": "YB-1 (Homo sapiens, UniProt P67809)", "sequence (P67809 whole entry)": "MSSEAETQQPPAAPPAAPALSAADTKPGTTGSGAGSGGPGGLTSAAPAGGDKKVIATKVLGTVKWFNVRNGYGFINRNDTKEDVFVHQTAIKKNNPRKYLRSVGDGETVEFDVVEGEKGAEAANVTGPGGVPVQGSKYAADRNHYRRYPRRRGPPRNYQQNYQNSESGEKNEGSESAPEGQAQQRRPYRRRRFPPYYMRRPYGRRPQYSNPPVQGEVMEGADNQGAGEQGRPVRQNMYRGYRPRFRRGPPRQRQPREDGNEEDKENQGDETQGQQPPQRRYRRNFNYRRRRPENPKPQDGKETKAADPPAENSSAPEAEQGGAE", "assay": "Cellular Thermal Shift Assay (CETSA) in OVCAR8 cells", "type": "binding", "set-up": "endogenous in cells; host or cells: OVCAR8", "conditions": "SU056 2.5 μM, 1.5 h, read-out: increase in thermal stability (Tm shift) of YB-1", "method": "The cellular thermal shift assay (CETSA) is based on the principle of protein-ligand interactions causing a shift in protein thermal stability (Savitski et al., 2014). When a protein interacts with ligand, its thermal stability increases, and this principle allows identification of which protein targets that are engaged by small molecules or drug candidates. We used this assay to identify protein targets of SU056. OVCAR8 cells were treated with SU056 (2.5 μM) for 1.5 h, and protein lysates were analyzed for a thermal shift. The heat maps represent the thermal stability of 804 soluble proteins in the presence and absence of SU056 compare with 37° C. (FIG. 3A).\nCellular Thermal Shift Assay (CETSA): The assay was performed as previously described (Savitski et al., 2014). Briefly, OVCAR8 cells were treated with vehicle (DMSO) or SU056 (2.5 μM) at 70-80% confluency for 1.5 h. Cells were harvested and washed with 1×PBS twice. Cells were pelleted and resuspended in PBS. 10 different PCR tubes with 1×10^6 cells/tube (in 100 μL PBS) were prepared for both the groups. Tubes were exposed to respective temperatures (37, 41, 44, 47, 50, 53, 56, 59, 63, 67° C.) for 3 min using a thermal cycler (Bio-Rad, CA, USA) followed by 2 min incubation at room temperature."}}, "data": [{"smiles": "O=C1OCC2=C1C(c1cccc(F)c1)c1cc3c(cc1N2CCO)OCO3", "note": "(stereo not drawn) [SU056, 9-(3-fluorophenyl)-5-(2-hydroxyethyl)-6,9-dihydro-[1,3]dioxolo[4,5-g]furo[3,4-b]quinolin-8(5H)-one]", "values": [{"measurement": "inhibition at 1 µM", "setting": "[1]", "result": "78 to 87", "unit": "%"}, {"measurement": "impact on blood chemistry indicators (AST, ALT, alkaline phosphatase)", "setting": "[2]", "result": "no significant impact"}, {"measurement": "ΔTm at 2.5 µM", "setting": "[3]", "result": "5.92 ± 0.86", "unit": "°C"}]}]}
